Read-outs that look alike come from different tables or passages of the source.
What was measured:
PC3 = experiment: Proliferation assay (Cell Titer-Glo, 72 h), PC3; conditions: Homo sapiens, PC-3, 72 h, PC3, Prostate
MCF7 = experiment: Proliferation assay (Cell Titer-Glo, 72 h), MCF7; conditions: MCF7, Breast, listed as free base
KPL4 = experiment: Proliferation assay (Cell Titer-Glo, 72 h), KPL4; conditions: KPL4, 72 h
BT474 = experiment: Proliferation assay (Cell Titer-Glo, 72 h), BT474; conditions: Homo sapiens, BT-474, 72 h, BT474, Breast
T47D = experiment: Proliferation assay (Cell Titer-Glo, 72 h), T47D; conditions: Breast, listed as free base
HT29 = experiment: Proliferation assay (Cell Titer-Glo, 72 h), HT29; conditions: HT29, Colon, listed as free base
MDA-MB-468 = experiment: Proliferation assay (Cell Titer-Glo, 72 h), MDA-MB-468; conditions: MDA-MB-468, Breast, listed as free base
H460 = experiment: Proliferation assay (Cell Titer-Glo, 72 h), H460; conditions: Homo sapiens, NCI-H460, 72 h, H460, Lung
U87MG = experiment: Proliferation assay (Cell Titer-Glo, 72 h), U87MG; conditions: Homo sapiens, U-87 MG
SK-Br-3 = experiment: Proliferation assay (Cell Titer-Glo, 72 h), SK-Br-3; conditions: Homo sapiens, SK-BR-3, 72 h, SK-Br-3, Breast
LNCaP = experiment: Proliferation assay (Cell Titer-Glo, 72 h), LNCaP; conditions: Homo sapiens, 72 h, Prostate
Colo205 = experiment: Proliferation assay (Cell Titer-Glo, 72 h), Colo205; conditions: Colo205, Colon, listed as free base
BT20 = experiment: Proliferation assay (Cell Titer-Glo, 72 h), BT20; conditions: BT20, Breast, listed as free base
786O = experiment: Proliferation assay (Cell Titer-Glo, 72 h), 786O; conditions: Kidney, listed as free base
[1] = Stability as solid (stored at 90° C. for 1 week, HPLC); format: physicochemical
A549 = experiment: Proliferation assay (Cell Titer-Glo, 72 h), A549; conditions: Homo sapiens, A549, 72 h, A549, Lung
HCT116 = experiment: Proliferation assay (Cell Titer-Glo, 72 h), HCT116; conditions: Homo sapiens, HCT-116, 72 h, HCT116, Colon

COc1c(OCCCN2CCOCC2)ccc2c1N=C(NC(=O)c1cnc(N)nc1)N1CCN=C21 [compound of formula (I), 2-amino-N-[7-methoxy-8-(3-morpholin-4-ylpropoxy)-2,3-dihydroimidazo[1,2-c]quinazolin-5-yl]pyrimidine-5-carboxamide]
IC50 (PC3): 100 nM | IC50 (MCF7): 27 nM | IC50 (KPL4): 3 nM | IC50 (BT474): 5 nM | IC50 (T47D): 6 nM | IC50 (HT29): 27 nM | IC50 (MDA-MB-468): 760 nM | IC50 (H460): 46 nM | IC50 (U87MG): 85 nM | IC50 (SK-Br-3): 2 nM | IC50 (LNCaP): 69 nM | IC50 (Colo205): 48 nM | Appearance (0.1M HCl, 1 week, 25° C.): slightly colored solution | Organic impurities, single (0.1M HCl, 1 week, 25° C.): 7.15 Area % | Organic impurities, sum of all (0.1M HCl, 1 week, 25° C.): 24.27 Area % | Appearance (0.1M HCl, 1 week, 70° C.): slightly colored solution | Organic impurities, single (0.1M HCl, 1 week, 70° C.): 25.48 Area % | Organic impurities, sum of all (0.1M HCl, 1 week, 70° C.): 100.00 Area % | Appearance (0.1M HCl, 24 h, 25° C.): slightly colored solution | Organic impurities, single (0.1M HCl, 24 h, 25° C.): 1.90 Area % | Organic impurities, sum of all (0.1M HCl, 24 h, 25° C.): 8.75 Area % | Appearance (0.1M HCl, 24 h, 70° C.): slightly colored solution | Organic impurities, single (0.1M HCl, 24 h, 70° C.): 22.82 Area % | Organic impurities, sum of all (0.1M HCl, 24 h, 70° C.): 92.49 Area % | Appearance (0.1M HCl, Initial): slightly colored solution | Organic impurities, single (0.1M HCl, Initial): 1.13 Area % | Organic impurities, sum of all (0.1M HCl, Initial): 5.87 Area % | Appearance (0.1M NaOH, 1 week, 25° C.): slightly colored solution | Organic impurities, single (0.1M NaOH, 1 week, 25° C.): 22.03 Area % | Organic impurities, sum of all (0.1M NaOH, 1 week, 25° C.): 86.64 Area % | Appearance (0.1M NaOH, 1 week, 70° C.): slightly colored solution | Organic impurities, single (0.1M NaOH, 1 week, 70° C.): 32.63 Area % | Organic impurities, sum of all (0.1M NaOH, 1 week, 70° C.): 99.90 Area % | Appearance (0.1M NaOH, 24 h, 25° C.): slightly colored solution | Organic impurities, single (0.1M NaOH, 24 h, 25° C.): 10.02 Area % | Organic impurities, sum of all (0.1M NaOH, 24 h, 25° C.): 45.40 Area % | Appearance (0.1M NaOH, 24 h, 70° C.): slightly colored solution | Organic impurities, single (0.1M NaOH, 24 h, 70° C.): 23.94 Area % | Organic impurities, sum of all (0.1M NaOH, 24 h, 70° C.): 99.88 Area % | Appearance (0.1M NaOH, Initial): slightly colored solution | Organic impurities, single (0.1M NaOH, Initial): 6.51 Area % | Organic impurities, sum of all (0.1M NaOH, Initial): 30.72 Area % | Appearance (Buffer pH 7, 1 week, 25° C.): slightly colored turbid | Organic impurities, single (Buffer pH 7, 1 week, 25° C.): 0.82 Area % | Organic impurities, sum of all (Buffer pH 7, 1 week, 25° C.): 4.85 Area % | Appearance (Buffer pH 7, 1 week, 70° C.): slightly colored solution | Organic impurities, single (Buffer pH 7, 1 week, 70° C.): 39.01 Area % | Organic impurities, sum of all (Buffer pH 7, 1 week, 70° C.): 97.65 Area % | Appearance (Buffer pH 7, 24 h, 25° C.): slightly colored turbid | Organic impurities, single (Buffer pH 7, 24 h, 25° C.): 0.20 Area % | Organic impurities, sum of all (Buffer pH 7, 24 h, 25° C.): 3.22 Area % | Appearance (Buffer pH 7, 24 h, 70° C.): slightly colored solution | Organic impurities, single (Buffer pH 7, 24 h, 70° C.): 23.25 Area % | Organic impurities, sum of all (Buffer pH 7, 24 h, 70° C.): 56.06 Area % | Appearance (Buffer pH 7, Initial): slightly colored turbid | Organic impurities, single (Buffer pH 7, Initial): 0.23 Area % | Organic impurities, sum of all (Buffer pH 7, Initial): 3.15 Area % | Appearance (Water, 1 week, 25° C.): slightly colored solution | Organic impurities, single (Water, 1 week, 25° C.): 0.54 Area % | Organic impurities, sum of all (Water, 1 week, 25° C.): 5.33 Area % | Appearance (Water, 1 week, 70° C.): slightly colored solution | Organic impurities, single (Water, 1 week, 70° C.): 45.44 Area % | Organic impurities, sum of all (Water, 1 week, 70° C.): 98.59 Area % | Appearance (Water, 24 h, 25° C.): slightly colored solution | Organic impurities, single (Water, 24 h, 25° C.): 0.23 Area % | Organic impurities, sum of all (Water, 24 h, 25° C.): 3.43 Area % | Appearance (Water, 24 h, 70° C.): slightly colored solution | Organic impurities, single (Water, 24 h, 70° C.): 25.89 Area % | Organic impurities, sum of all (Water, 24 h, 70° C.): 58.00 Area % | Appearance (Water, Initial): slightly colored solution | Organic impurities, single (Water, Initial): 0.25 Area % | Organic impurities, sum of all (Water, Initial): 2.79 Area % | IC50 (BT20): 6 nM | IC50 (786O): 116 nM | stability in solid form [1]: stable in solid form | therm. stab. solid ([1]; 1 w @ 90° C.): ++ | IC50 (A549): 37 nM | IC50 (HCT116): 56 nM

Reference: patent US20160193219A1, “SUBSTITUTED 2,3-DIHYDROIMIDAZO[1,2-C]QUINAZOLINE SALTS” (priority 2011, published 2016)
